How the values were obtained:
PHGDH [1] = target: T1, PHGDH (Homo sapiens, UniProt O43175); details: coupled-enzyme assay
T1 sequence (O43175 1-533): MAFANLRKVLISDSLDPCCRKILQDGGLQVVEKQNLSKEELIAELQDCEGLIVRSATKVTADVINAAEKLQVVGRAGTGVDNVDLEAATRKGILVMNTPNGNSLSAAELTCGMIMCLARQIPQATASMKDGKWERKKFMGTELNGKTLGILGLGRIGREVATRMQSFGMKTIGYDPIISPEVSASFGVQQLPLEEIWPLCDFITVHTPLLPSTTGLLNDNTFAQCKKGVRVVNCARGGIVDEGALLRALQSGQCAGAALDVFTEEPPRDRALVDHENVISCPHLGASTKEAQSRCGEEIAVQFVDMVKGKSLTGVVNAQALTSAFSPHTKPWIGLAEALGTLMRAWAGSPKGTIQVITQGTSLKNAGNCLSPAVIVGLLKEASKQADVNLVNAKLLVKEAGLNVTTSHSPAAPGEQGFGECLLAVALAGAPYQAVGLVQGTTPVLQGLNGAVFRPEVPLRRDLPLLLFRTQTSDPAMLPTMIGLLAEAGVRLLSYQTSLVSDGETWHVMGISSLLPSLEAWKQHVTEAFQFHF

SiHa = experiment: Cell proliferation inhibition, SiHa in serine-replete or -deplete medium; format: cell-based, human; details: ratio of IC50 in serine-replete to serine-deplete medium
HL-60 shCTRL = experiment: Cell proliferation inhibition, HL-60 shCTRL in serine-replete or -deplete medium; format: cell-based, human; details: ratio of IC50 in serine-replete to serine-deplete medium
PHGDH [2] = target: T1, PHGDH; experiment: Rapid dilution; format: biochemical; details: 160 μM, 45 min at 37 °C, diluted 10-fold
PHGDH [3] = target: T1, PHGDH; experiment: Ki measurement / competition assay by titrating 3-PG or NAD+; format: biochemical

SMILES	PHGDH inhibition (IC50, μM) (PHGDH [1])	SiHa IC50+Ser/IC50−Ser (SiHa)	HL-60 shCTRL IC50+Ser/IC50−Ser (HL-60 shCTRL)	recovery of enzymatic activity after dilution (PHGDH [2])	mode of action with respect to both substrates (3-PG and NAD+) (PHGDH [3])
O=C(C(=S)N1CCOCC1)c1cccc(Cl)c1 [compound 24, 1-(3-Chlorophenyl)-2-morpholino-2-thioxoethanone]	no inhibition	–	–	–	–
O=C(Nc1ccccc1[N+](=O)[O-])c1ccc(Cl)cc1 [compound 12]	–	>1.7	>1.2	–	–
O=C(C(=S)N1CCOCC1)c1ccccc1 [compound 19, 1-Phenyl-2-morpholino-2-thioxoethanone]	–	–	>5.5	enzymatic activity is not recovered after dilution	noncompetitive
O=C(C(=S)N1CCOCC1)c1ccccc1Cl [compound 23, 1-(2-Chlorophenyl)-2-morpholino-2-thioxoethanone]	no inhibition	–	–	–	–

Source: article PMC5603230 (Journal of medicinal chemistry, 2017)
